Like-named read-outs stand apart in the source and are kept apart here.
Target: human PAD4 (hPAD4) (Homo sapiens, UniProt Q9UM07)
Assay: RFMS Human PAD4 Functional Assay
Assay type: biochemical
Details: 5 nM hPAD4, 250 μM BAEE
Experimental: RFMS Human PAD4 Functional Assay:
Compounds were solubilized in 100% DMSO to achieve a 10 mM compound concentration. Compound stock solutions were stored at RT. A series of dilutions were prepared in DMSO and mixed 8 times with 20 μL mixing volume. Final top concentration of compound in the assay is 50 μM.
0.13 μL of compound solution was added to 13 μL of 10 nM PAD4 in assay buffer. After 30 min 13 μl of 500 μM of BAEE was added in 25 mM hepes, pH 7.5, 5 mM NaCl, 1 mM DTT, 0.2 mg/ml BSA, 0.01% CHAPS, 50 μM Calcium, 5 μM TPEN was added and the reaction incubated for 90 min at 37° C. The enzymatic reaction was quenched by addition of 15 μl of 6.1N TCA, 100% Final Concentration is 20%, 35 μl of 8.5 mM phenyl glyoxal (final concentration 4 mM) is then added and the reaction is incubated for 30 min at 37° C.
After 30 minutes the plates are spun down to remove all precipitate. The enzyme reaction was quenched with an equal volume of methanol containing internal standard (modified citrulline). Samples were loaded onto the Rapid Fire RF300 system (Agilent) wherein they were first sipped for 1000 ms and then directly loaded to a C18 separations cartridge using a mixture of acetonitrile containing 0.01% formic acid for 3000 ms desalting. The flow rate of the mobile phase was 1.5 ml/min.
The dwell time for each transition was set at 200 ms, and the ESI voltage was used at 5500 with a source temperature of 400° C. Extracted ion peaks for each transition were integrated using the Rapid Fire Integrator software. Peak area of analyte was normalized with internal standard.).

[1] = hPAD4 RFMS IC50, human PAD4, rapid-fire mass spectrum (RFMS) assay
[2] = human PAD4, rapid-fire mass spectrum (RFMS) assay, read-out: hPAD4 RFMS IC50

Chain of human PAD4 (hPAD4) (Q9UM07 whole entry): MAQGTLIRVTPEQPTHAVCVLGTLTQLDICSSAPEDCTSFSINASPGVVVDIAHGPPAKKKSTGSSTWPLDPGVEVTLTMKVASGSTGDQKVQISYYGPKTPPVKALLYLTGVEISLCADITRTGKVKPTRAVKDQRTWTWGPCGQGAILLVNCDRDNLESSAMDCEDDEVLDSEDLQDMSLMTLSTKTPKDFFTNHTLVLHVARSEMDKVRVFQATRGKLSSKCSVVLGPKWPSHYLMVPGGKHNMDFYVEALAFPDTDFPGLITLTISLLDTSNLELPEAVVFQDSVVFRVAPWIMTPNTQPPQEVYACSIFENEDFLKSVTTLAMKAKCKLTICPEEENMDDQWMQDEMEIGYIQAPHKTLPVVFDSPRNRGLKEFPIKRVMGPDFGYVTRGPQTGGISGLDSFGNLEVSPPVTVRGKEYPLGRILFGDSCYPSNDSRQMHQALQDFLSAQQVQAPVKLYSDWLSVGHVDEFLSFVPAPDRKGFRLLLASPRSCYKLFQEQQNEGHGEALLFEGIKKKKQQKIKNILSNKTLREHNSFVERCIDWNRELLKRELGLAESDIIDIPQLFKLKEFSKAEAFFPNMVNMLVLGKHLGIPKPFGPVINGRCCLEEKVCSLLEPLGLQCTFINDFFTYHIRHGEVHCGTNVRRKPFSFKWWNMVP

Structure (SMILES)	IC50 [1] [nM]	IC50 [2] [nM]
COc1cc(C(=O)N2C[C@H]3CC[C@@H]2[C@@H]3N)cc2nc(-c3cc4cccc(C5CC(C(=O)N6CCC6)C5)c4n3CC3CC3)n(C)c12 (single isomer, unassigned; isomer 1) [Example 202]	24	
COc1cc(C(=O)N2CC3CC[C@@H]2[C@@H]3N)cc2nc(-c3cc4cccc(-c5ccc6c(c5)C(C)(C)OC(=O)N6)c4n3CC3CC3)n(C)c12 (stereo in doubt) [Example 142, 6-(2-(5-((1R,4S)-7-amino-2-azabicyclo[2.2.1]heptane-2-carbonyl)-7-methoxy-1-methyl-1H-benzo[d]imidazol-2-yl)-1-(cyclopropylmethyl)-1H-indol-7-yl)-4,4-dimethyl-1,4-dihydro-2H-benzo[d][1,3]oxazin-2-one]	180	
COc1cc(C(=O)N2C[C@H]3CC[C@@H]2[C@@H]3N)cc2nc(-c3cc4cccc(Br)c4n3CC3CC3)n(C)c12 [Example 1, ((1R,4R,7R)-7-amino-2-azabicyclo[2.2.1]heptan-2-yl)(2-(7-bromo-1-(cyclopropylmethyl)-1H-indol-2-yl)-7-methoxy-1-methyl-1H-benzo[d]imidazol-5-yl)methanone]		162
COc1cc(C(=O)N2C[C@H]3CC[C@@H]2[C@@H]3N)cc2nc(-c3cc4cccc(CCCO)c4n3CC3CC3)n(C)c12 [Example 2, ((1R,4R,7R)-7-amino-2-azabicyclo[2.2.1]heptan-2-yl)(2-(1-(cyclopropylmethyl)-7-(3-hydroxypropyl)-1H-indol-2-yl)-7-methoxy-1-methyl-1H-benzo[d]imidazol-5-yl)methanone]		32
COc1cc(C(=O)N2C[C@H]3CC[C@@H]2[C@@H]3N)cc2nc(-c3cc4cccc(CC5CCNCC5)c4n3CC3CC3)n(C)c12 [Example 10, (1R,4R,7R)-2-{2-[1-(cyclopropylmethyl)-7-[(piperidin-4-yl)methyl]-1H-indol-2-yl]-7-methoxy-1-methyl-1H-1,3-benzodiazole-5-carbonyl}-2-azabicyclo[2.2.1]heptan-7-amine]	128	
COc1cc(C(=O)N2C[C@H]3CC[C@@H]2[C@@H]3N)cc2nc(-c3cc4cccc(CCCN)c4n3CC3CC3)n(C)c12 [Example 11, (1R,4R,7R)-2-{2-[7-(3-aminopropyl)-1-(cyclopropylmethyl)-1H-indol-2-yl]-7-methoxy-1-methyl-1H-1,3-benzodiazole-5-carbonyl}-2-azabicyclo[2.2.1]heptan-7-amine]	48	
COc1cc(C(=O)N2C[C@H]3CC[C@@H]2[C@@H]3N)cc2nc(-c3cc4cccc(C5CCC(N)CC5)c4n3CC3CC3)n(C)c12 (stereo partly drawn) [Example 13, (1R,4R,7R)-2-{2-[7-(4-aminocyclohexyl)-1-(cyclopropylmethyl)-1H-indol-2-yl]-7-methoxy-1-methyl-1H-1,3-benzodiazole-5-carbonyl}-2-azabicyclo[2.2.1]heptan-7-amine]	16	
COc1cc(C(=O)N2C[C@H]3CC[C@@H]2[C@@H]3N)cc2nc(-c3cc4cccc(C[C@H]5CC[C@H](N)CC5)c4n3CC3CC3)n(C)c12 [Example 14, ((1R,4R,7R)-7-amino-2-azabicyclo[2.2.1]heptan-2-yl)(2-(7-(((trans)-4-aminocyclohexyl)methyl)-1-(cyclopropylmethyl)-1H-indol-2-yl)-7-methoxy-1-methyl-1H-benzo[d]imidazol-5-yl)methanone]	38	
COc1cc(C(=O)N2C[C@H]3CC[C@@H]2[C@@H]3N)cc2nc(-c3cc4cccc(C5CCN(C(C)=O)CC5)c4n3CC3CC3)n(C)c12 [Example 15, 1-[4-(2-{5-[(1R,4R,7R)-7-amino-2-azabicyclo[2.2.1]heptane-2-carbonyl]-7-methoxy-1-methyl-1H-1,3-benzodiazol-2-yl}-1-(cyclopropylmethyl)-1H-indol-7-yl)piperidin-1-yl]ethan-1-one]	20	
COc1cc(C(=O)N2C[C@H]3CC[C@@H]2[C@@H]3N)cc2nc(-c3cc4cccc(CCCCCN)c4n3CC3CC3)n(C)c12 [Example 16, (1R,4R,7R)-2-{2-[7-(5-aminopentyl)-1-(cyclopropylmethyl)-1H-indol-2-yl]-7-methoxy-1-methyl-1H-1,3-benzodiazole-5-carbonyl}-2-azabicyclo[2.2.1]heptan-7-amine]	39	

The remaining lines, values ahead:

IC50 [1] [nM]	IC50 [2] [nM]	Structure (SMILES)
53		[2H]C([2H])([2H])N(C(=O)C1CC(c2cccc3cc(-c4nc5cc(C(=O)N6C[C@H]7CC[C@@H]6[C@@H]7N)cc(OC)c5n4C)n(CC4CC4)c23)C1)C([2H])([2H])[2H] (single isomer, unassigned; isomer 2) [Example 196]
57		COc1cc(C(=O)N2C[C@H]3CC[C@@H]2[C@@H]3N)cc2nc(-c3cc4cccc(C5CC(C(=O)N6CC(F)C6)C5)c4n3CC3CC3)n(C)c12 (single isomer, unassigned; isomer 2) [Example 201]
46		COc1cc(C(=O)N2C[C@H]3CC[C@@H]2[C@@H]3N)cc2nc(-c3cc4cccc(C5CC(C(=O)N6CCC6)C5)c4n3CC3CC3)n(C)c12 (single isomer, unassigned; isomer 2) [Example 203]
	73	COc1cc(C(=O)N2C[C@H]3CC[C@@H]2[C@@H]3N)cc2nc(-c3cc4cccc(-c5cn(CCO)nn5)c4n3CC3CC3)n(C)c12 (stereo in doubt) [Example 108, 2-{4-[2-(5-{7-amino-2-azabicyclo[2.2.1]heptane-2-carbonyl}-7-methoxy-1-methyl-1H-1,3-benzodiazol-2-yl)-1-(cyclopropylmethyl)-1H-indol-7-yl]-1H-1,2,3-triazol-1-yl}ethan-1-ol]
100		COc1cc(C(=O)N2C[C@H]3CC[C@@H]2[C@@H]3N)cc2nc(-c3cc4cccc(C5CCOCC5)c4n3CC3CC3)n(C)c12 [Example 3, ((1R,4R,7R)-7-amino-2-azabicyclo[2.2.1]heptan-2-yl)(2-(1-(cyclopropylmethyl)-7-(tetrahydro-2H-pyran-4-yl)-1H-indol-2-yl)-7-methoxy-1-methyl-1H-benzo[d]imidazol-5-yl)methanone]
30		COc1cc(C(=O)N2C[C@H]3CC[C@@H]2[C@@H]3N)cc2nc(-c3cc4cccc(C5CCNCC5)c4n3CC3CC3)n(C)c12 [Example 4, (1R,4R,7R)-2-{2-[1-(cyclopropylmethyl)-7-(piperidin-4-yl)-1H-indol-2-yl]-7-methoxy-1-methyl-1H-1,3-benzodiazole-5-carbonyl}-2-azabicyclo[2.2.1]heptan-7-amine]
187		CCCc1cccc2cc(-c3nc4cc(C(=O)N5C[C@H]6CC[C@@H]5[C@@H]6N)cc(OC)c4n3C)n(CC3CC3)c12 [Example 5, (1R,4R,7R)-2-{2-[1-(cyclopropylmethyl)-7-propyl-1H-indol-2-yl]-7-methoxy-1-methyl-1H-1,3-benzodiazole-5-carbonyl}-2-azabicyclo[2.2.1]heptan-7-amine]
190		COc1cc(C(=O)N2C[C@H]3CC[C@@H]2[C@@H]3N)cc2nc(-c3cc4cccc(C5CCCC5)c4n3CC3CC3)n(C)c12 [Example 6, (1R,4R,7R)-2-{2-[7-cyclopentyl-1-(cyclopropylmethyl)-1H-indol-2-yl]-7-methoxy-1-methyl-1H-1,3-benzodiazole-5-carbonyl}-2-azabicyclo[2.2.1]heptan-7-amine]
158		COc1cc(C(=O)N2C[C@H]3CC[C@@H]2[C@@H]3N)cc2nc(-c3cc4cccc(C5CCC5)c4n3CC3CC3)n(C)c12 [Example 7, (1R,4R,7R)-2-{2-[7-cyclobutyl-1-(cyclopropylmethyl)-1H-indol-2-yl]-7-methoxy-1-methyl-1H-1,3-benzodiazole-5-carbonyl}-2-azabicyclo[2.2.1]heptan-7-amine]
73		COc1cc(C(=O)N2C[C@H]3CC[C@@H]2[C@@H]3N)cc2nc(-c3cc4cccc(C5CNC5)c4n3CC3CC3)n(C)c12 [Example 8, (1R,4R,7R)-2-{2-[7-(azetidin-3-yl)-1-(cyclopropylmethyl)-1H-indol-2-yl]-7-methoxy-1-methyl-1H-1,3-benzodiazole-5-carbonyl}-2-azabicyclo[2.2.1]heptan-7-amine]
40		COc1cc(C(=O)N2C[C@H]3CC[C@@H]2[C@@H]3N)cc2nc(-c3cc4cccc(C5CC(N)C5)c4n3CC3CC3)n(C)c12 (stereo partly drawn) [Example 9, (1R,4R,7R)-2-{2-[7-(3-aminocyclobutyl)-1-(cyclopropylmethyl)-1H-indol-2-yl]-7-methoxy-1-methyl-1H-1,3-benzodiazole-5-carbonyl}-2-azabicyclo[2.2.1]heptan-7-amine]
73		COc1cc(C(=O)N2C[C@H]3CC[C@@H]2[C@@H]3N)cc2nc(-c3cc4cccc(C5CCCNC5)c4n3CC3CC3)n(C)c12 (stereo partly drawn) [Example 12, (1R,4R,7R)-2-{2-[1-(cyclopropylmethyl)-7-(piperidin-3-yl)-1H-indol-2-yl]-7-methoxy-1-methyl-1H-1,3-benzodiazole-5-carbonyl}-2-azabicyclo[2.2.1]heptan-7-amine]
